The text below walks through data of paper PMC8565515, “Dasabuvir Inhibits Human Norovirus Infection in Human Intestinal Enteroids” (mSphere, 2021).

The test system of one data set is GII.4 HuNoV. Put plainly: GII.4 HuNoV infection of HIE monolayers, viral genome equivalents by RT-qPCR. Format: cell-based, human norovirus. The note with it: Norovirus.
For the next data set, the system named is GII.3 HuNoV. Put plainly: microbe, parasite or virus in culture. The note with it: Norovirus, read-out: EC50, HuNoV GEs. It is filed as cell-based, human norovirus.
In data set [1] the test system is J2 HIE monolayers. It is filed as cell-based. The note with it: human, 20 h, 50 μM. The protocol: Supplementary file : FIG S2 Cell viability and cytotoxicity of dasabuvir in J2 HIE monolayers. J2 HIE monolayers were treated with DSB at the indicated concentrations for 20 h. Cell viability or cytotoxicity was measured using CellTiter-Glo luminescent cell viability assay or the Cytotoxicity LDH assay kit-WST, respectively. Results were normalized to DMSO control. Values represent the mean ± SD (n = 7). Download FIG S2, TIF file, 0.8 MB.

For data set [2], the system named is human rotavirus A (RVA) Wa strain. It is filed as cell-based. The note with it: 20 μM, J2 HIE monolayers, 20 hpi.
For a further data set, the system named is SARS-CoV-2. Format: cell-based. Particulars: VeroE6/TMPRSS2 cells, 20 h.
A further data set relates to VeroE6/TMPRSS2 cells. The note with it: 20 h.
A further data set relates to HCV of genotype 1. Set-up: method as in PMID 25534735. Particulars: HCV genotype 1 subgenomic replicon; cited from earlier work.
The conditions of data set [3]: healthy volunteers, 1,000 mg twice a day [BID] for 10 days; read-out: maximum plasma concentration (Cmax); cited from earlier work.
Data set [4] relates to RdRp of Middle East respiratory syndrome coronavirus (MERS-CoV). Particulars: cited from earlier work.
In data set [5] the test system is J2 HIE monolayers. Kind of data set: Cytotoxicity by LDH assay in J2 HIE monolayers.
The subject of another data set is SARS-CoV-2 (WK-521). Put plainly: SARS-CoV-2 infection of J2 HIE monolayers, viral GEs by RT-qPCR. Particulars: 20 μM, 20 hpi.

Where two headings read alike, the source gives them in different places. Bounds are passed on as bounds.

For `COc1c(-c2ccc3cc(NS(C)(=O)=O)ccc3c2)cc(-n2ccc(=O)[nH]c2=O)cc1C(C)(C)C` [Dasabuvir], the activity at 10 µM with GII.4 HuNoV (24 h, compound 10 μM, n = 1, J2 HIE monolayers, GII.4 HuNoV, 24 hpi, normalized to DMSO control, read-out: (%) HuNoV GEs) came to 1.14%. For the same molecule, the concentration for a half-maximal effect (EC50) in the data set with GII.4 HuNoV (J2 + GII.4, 20 hpi, read-out: EC50, HuNoV GEs) was 11.7 µM; in the data set on GII.4 HuNoV (J3 + GII.4, 20 hpi, read-out: EC50, HuNoV GEs), 12.4 µM; in the data set on GII.4 HuNoV (range over GII.4 and GII.3 HuNoV in J2 and J3 HIEs (Fig. 2), read-out: EC50 values, HuNoV infection), 7.55 to 12.4 µM; with GII.3 HuNoV (J2 + GII.3, 20 hpi) it was 7.55 µM; with GII.3 HuNoV (J3 + GII.3, 20 hpi), 9.85 µM; with HCV of genotype 1, less than 0.01 µM. In the data set on J2 HIE monolayers [1], the “reduction of cellular ATP (cell viability)” value was 17%. Further, the “fold decrease of RVA infection (viral GEs)” value in data set [2] was found to be 2.75 fold. In addition, in the data set on SARS-CoV-2, the “effect on SARS-CoV-2 infection” value was “inhibition”. The cytotoxicity result in the data set on VeroE6/TMPRSS2 cells is reported as “no cytotoxicity”. Also, in data set [3], the Cmax was approximately 5.61 µM. For the same molecule, the “inhibition of RdRp activity” value in [4] is recorded as “partially inhibits”. Besides, the “increase of LDH release (cytotoxicity)” value with J2 HIE monolayers [5] (50 μM, 20 h, uninfected J2 monolayers, compared to DMSO control) worked out at 10%. Further, in the data set with J2 HIE monolayers [5] (compound 10 μM, n = 1, LDH assay, J2 HIE monolayers infected with GII.4 HuNoV, 24 hpi, normalized to DMSO control), the “(%) Cytotoxicity” value is listed as -4.83%. Further, the “fold decrease of SARS-CoV-2 infection (viral GEs)” value with SARS-CoV-2 (WK-521) came to 26.9 fold.
